# From ChEMBL document CHEMBL1139296, “Pleuromutilin derivatives having a purine ring. Part 2: influence of the central spacer on the antibacterial activity against Gram-positive pathogens” (2009)
# Assays:
# Assay type in all cases: functional
# [1] = tested on: Enterococcus faecium; assay: Antimicrobial activity against vancomycin-resistant Enterococcus faecium KU1778 by NCCLS method
# [2] = tested on: Streptococcus pyogenes; assay: Antimicrobial activity against Streptococcus pyogenes […] by NCCLS method
# [3] = tested on: Streptococcus pneumoniae; assay: Antimicrobial activity against penicillin-susceptible Streptococcus pneumoniae ATCC 49619 by NCCLS method
# [4] = tested on: Moraxella catarrhalis; assay: Antimicrobial activity against Moraxella catarrhalis K1209 by NCCLS method
# [5] = tested on: Haemophilus influenzae; assay: Antimicrobial activity against Haemophilus influenzae TH13 by NCCLS method
# [6] = tested on: Staphylococcus aureus; assay: Antimicrobial activity against methicillin-susceptible Staphylococcus aureus Smith by NCCLS method
# [7] = tested on: Staphylococcus aureus; assay: Antimicrobial activity against methicillin-resistant Staphylococcus aureus KMP9
# [8] = tested on: Streptococcus pneumoniae; assay: Antimicrobial activity against penicillin-resistant Streptococcus pneumoniae KT2524 by NCCLS method
# [9] = tested on: Staphylococcus aureus; assay: Antimicrobial activity against methicillin-susceptible Staphylococcus aureus infected mouse assessed as survival rate administered iv after 1 hr of infection
Structure (SMILES),MIC [1] [µg/mL],MIC [2] [µg/mL],MIC [3] [µg/mL],MIC [4] [µg/mL],MIC [5] [µg/mL],MIC [6] [µg/mL],MIC [7] [µg/mL],MIC [8] [µg/mL],ED50 [9] [mg/kg]
C=C[C@]1(C)C[C@@H](OC(=O)CSC2CCN(C(=O)CCn3cnc4c(N5CCC(N)C5)ncnc43)CC2)[C@]2(C)[C@H](C)CC[C@]3(CCC(=O)[C@@H]32)[C@@H](C)[C@@H]1O.Cl (some centres not stated),0.032,0.016,0.016,0.032,1,0.063,0.125,0.032,1.47
C=C[C@]1(C)C[C@@H](OC(=O)CSC2CCCN(C(=O)CCn3cnc4c(N5CCC(N)C5)ncnc43)C2)[C@]2(C)[C@H](C)CC[C@]3(CCC(=O)[C@@H]32)[C@@H](C)[C@@H]1O.Cl (some centres not stated),0.063,0.008,0.016,0.063,2,0.25,0.5,0.016,2.02
C=C[C@]1(C)C[C@@H](OC(=O)CSC2CN(C(=O)CCn3cnc4c(N5CCNCC5)nc(N)nc43)C2)[C@]2(C)[C@H](C)CC[C@]3(CCC(=O)[C@@H]32)[C@@H](C)[C@@H]1O.Cl,0.5,≤ 0.004,0.125,0.125,2,0.5,2,0.25,4.07
CC[C@]1(C)C[C@@H](OC(=O)COC2CCN(C(=O)CCn3cnc4c(N5CCC(N)C5)ncnc43)CC2)[C@]2(C)[C@H](C)CC[C@]3(CCC(=O)[C@@H]32)[C@@H](C)[C@@H]1O.Cl (some centres not stated),0.125,0.032,0.032,0.125,4,0.25,0.5,0.063,2.04
C=C[C@]1(C)C[C@@H](OC(=O)CN(C)CCN(C)C(=O)CCn2cnc3c(N4CCC(N)C4)ncnc32)[C@]2(C)[C@H](C)CC[C@]3(CCC(=O)[C@@H]32)[C@@H](C)[C@@H]1O.Cl.Cl (some centres not stated),1,0.063,0.063,0.25,8,1,4,0.125,> 3.13
C=C[C@]1(C)C[C@@H](OC(=O)CSCC2CN(C(=O)CCn3cnc4c(N5CCNCC5)nc(N)nc43)CCO2)[C@]2(C)[C@H](C)CC[C@]3(CCC(=O)[C@@H]32)[C@@H](C)[C@@H]1O.Cl (some centres not stated),0.5,0.032,0.063,0.25,8,1,2,0.125,4.81
C=C[C@]1(C)C[C@@H](OC(=O)CNC2CCN(C(=O)CCn3cnc4c(N5CCC(N)C5)ncnc43)CC2)[C@]2(C)[C@H](C)CC[C@]3(CCC(=O)[C@@H]32)[C@@H](C)[C@@H]1O.Cl (some centres not stated),0.5,0.063,0.125,0.25,2,0.25,2,0.125,1.75
C=C[C@]1(C)C[C@@H](OC(=O)CSCCCN(C)C(=O)CCn2cnc3c(N4CCC(N)C4)ncnc32)[C@]2(C)[C@H](C)CC[C@]3(CCC(=O)[C@@H]32)[C@@H](C)[C@@H]1O.Cl (some centres not stated),0.063,0.008,0.016,0.063,1,0.125,0.25,0.016,0.86
C=C[C@]1(C)C[C@@H](OC(=O)CSCC2CCN(C(=O)CCn3cnc4c(N5CCNCC5)nc(N)nc43)CC2)[C@]2(C)[C@H](C)CC[C@]3(CCC(=O)[C@@H]32)[C@@H](C)[C@@H]1O.Cl,0.063,0.016,0.032,0.125,4,0.25,0.5,0.032,2.77
CC[C@]1(C)C[C@@H](OC(=O)CS(=O)(=O)C2CCN(C(=O)CCn3cnc4c(N5CCC(N)C5)ncnc43)CC2)[C@]2(C)[C@H](C)CC[C@]3(CCC(=O)[C@@H]32)[C@@H](C)[C@@H]1O.Cl (some centres not stated),1,0.032,0.063,0.125,4,0.5,2,0.125,1.79
C=C[C@]1(C)C[C@@H](OC(=O)CN2CCN(C(=O)CCn3cnc4c(N5CCC(N)C5)ncnc43)CC2)[C@]2(C)[C@H](C)CC[C@]3(CCC(=O)[C@@H]32)[C@@H](C)[C@@H]1O.Cl.Cl (some centres not stated),0.5,0.032,0.063,0.25,4,0.25,0.5,0.063,0.8
C=C[C@]1(C)C[C@@H](OC(=O)CSC2CCCN(C(=O)CCn3cnc4c(N5CCNCC5)nc(N)nc43)C2)[C@]2(C)[C@H](C)CC[C@]3(CCC(=O)[C@@H]32)[C@@H](C)[C@@H]1O.Cl (some centres not stated),0.25,0.016,0.032,0.125,2,0.5,1,0.032,3.13
CC[C@]1(C)C[C@@H](OC(=O)CSC2CCN(C(=O)CCn3cnc4c(N5CCNCC5)nc(N)nc43)CC2)[C@]2(C)[C@H](C)CC[C@]3(CCC(=O)[C@@H]32)[C@@H](C)[C@@H]1O.Cl,0.125,0.032,0.063,0.125,1,0.25,0.25,0.063,1.66
C=C[C@]1(C)C[C@@H](OC(=O)CSC2CCN(C(=O)CCn3cnc4c(N5CCNCC5)nc(N)nc43)C2)[C@]2(C)[C@H](C)CC[C@]3(CCC(=O)[C@@H]32)[C@@H](C)[C@@H]1O.Cl (some centres not stated),0.25,≤ 0.004,0.063,0.125,1,0.25,1,0.125,2.61
C=C[C@]1(C)C[C@@H](OC(=O)CSCCN(C)C(=O)CCn2cnc3c(N4CCC(N)C4)ncnc32)[C@]2(C)[C@H](C)CC[C@]3(CCC(=O)[C@@H]32)[C@@H](C)[C@@H]1O.Cl (some centres not stated),0.063,≤ 0.004,0.016,0.125,2,0.25,0.5,0.016,1.76
C=C[C@]1(C)C[C@@H](OC(=O)CS[C@H]2CCN(C(=O)CCn3cnc4c(N5CCNCC5)nc(N)nc43)C2)[C@]2(C)[C@H](C)CC[C@]3(CCC(=O)[C@@H]32)[C@@H](C)[C@@H]1O.Cl,0.25,0.016,0.063,0.25,2,0.5,1,0.125,3.16
C=C[C@]1(C)C[C@@H](OC(=O)CSC2CCN(C(=O)CCn3cnc4c(N5CCNCC5)nc(N)nc43)CC2)[C@]2(C)[C@H](C)CC[C@]3(CCC(=O)[C@@H]32)[C@@H](C)[C@@H]1O.Cl,0.125,0.032,0.063,0.25,1,0.25,0.5,0.063,1.86
C=C[C@]1(C)C[C@@H](OC(=O)CS[C@@H]2CCN(C(=O)CCn3cnc4c(N5CCNCC5)nc(N)nc43)C2)[C@]2(C)[C@H](C)CC[C@]3(CCC(=O)[C@@H]32)[C@@H](C)[C@@H]1O.Cl,0.5,0.032,0.063,0.25,2,0.05,2,0.125,1.28
